# Test results: patent publication US7598341B2, “Molecules that selectively home to vasculature of premalignant or malignant lesions of the pancreas and other organs” (Burnham Institue for Medical Research, priority 2003, dated 2009)
# Entries after “also recorded” stand apart in the source; their conditions may differ.
# Key:
# PDGFRβ [1] = target: T1, PDGFRβ (Homo sapiens, UniProt P09619); experiment: Phage binding to transfected 293T cells (plaque assay); details: FIG. 5A
# T1 construct: expressed in transfected cells; host or cells: 293T cells
# T1 sequence (P09619 33-1106, species assumed): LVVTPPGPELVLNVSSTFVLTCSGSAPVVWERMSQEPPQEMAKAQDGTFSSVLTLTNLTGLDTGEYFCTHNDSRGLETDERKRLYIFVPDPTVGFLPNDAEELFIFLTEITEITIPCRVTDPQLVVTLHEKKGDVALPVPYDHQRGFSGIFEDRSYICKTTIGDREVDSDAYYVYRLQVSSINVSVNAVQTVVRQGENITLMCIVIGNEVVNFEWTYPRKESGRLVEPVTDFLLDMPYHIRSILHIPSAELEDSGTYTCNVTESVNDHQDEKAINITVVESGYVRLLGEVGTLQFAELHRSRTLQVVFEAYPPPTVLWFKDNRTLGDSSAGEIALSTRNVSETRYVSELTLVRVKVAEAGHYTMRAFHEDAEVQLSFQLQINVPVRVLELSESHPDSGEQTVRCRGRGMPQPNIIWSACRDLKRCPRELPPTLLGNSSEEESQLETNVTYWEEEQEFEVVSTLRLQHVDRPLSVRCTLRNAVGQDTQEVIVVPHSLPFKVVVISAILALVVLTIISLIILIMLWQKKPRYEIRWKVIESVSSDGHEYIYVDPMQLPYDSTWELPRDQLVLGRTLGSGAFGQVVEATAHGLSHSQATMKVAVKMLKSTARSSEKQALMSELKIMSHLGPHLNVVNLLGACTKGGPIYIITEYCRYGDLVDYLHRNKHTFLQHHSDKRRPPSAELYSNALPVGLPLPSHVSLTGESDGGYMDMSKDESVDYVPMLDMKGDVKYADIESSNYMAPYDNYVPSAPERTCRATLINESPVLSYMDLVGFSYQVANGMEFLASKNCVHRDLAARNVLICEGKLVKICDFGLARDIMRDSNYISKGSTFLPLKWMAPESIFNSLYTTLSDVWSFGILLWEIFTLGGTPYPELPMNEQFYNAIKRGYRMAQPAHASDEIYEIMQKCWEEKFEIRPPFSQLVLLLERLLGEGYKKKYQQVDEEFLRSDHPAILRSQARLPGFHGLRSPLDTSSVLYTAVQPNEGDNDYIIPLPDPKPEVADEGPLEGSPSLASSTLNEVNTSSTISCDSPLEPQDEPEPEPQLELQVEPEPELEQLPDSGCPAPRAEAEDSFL
# Protocol: To confirm that the RGR peptide binds specifically to PDGFRβ, phage displaying this peptide were incubated with 293T cells overexpressing PDGFRβ. Recombinant 293T cells were prepared by transfecting with plasmids encoding PDGFRβ or VEGFR-2 (Borges et al., 2000) using Fugene transfection reagent (Roche Diagnostics). Briefly, 10 μg of plasmid was mixed with 700 μl of DMEM without serum and 30 μl of Fugene reagent, and incubated for 15 minutes at room temperature before adding the mixture to the cells. Forty-eight hours post-transfection the cells were detached from the culture plates using EDTA and washed once with PBS. Recombinant phage displaying the RSR, RGR peptides and control nonrecombinant phage (about 1×10^9 pfu) were incubated with the transfected cells for 2 hours at 4° C., followed by 5 washes with 1% BSA in PBS to remove the unbound phage. The bound phage were rescued by adding bacteria, and the binding efficiencies were determined by plaque assay.
# PDGFRβ [2] = target: T2, PDGFRβ (Mus musculus, UniProt P05622); experiment: Co-localization of i.v. injected fluorescein-conjugated peptide with PDGFRβ immunostaining in RIP1-Tag2 tumors; assay type: in vivo; details: tissue sections from RIP1-Tag2 tumors, FIG. 5B
# T2 construct: from tissue; host or cells: pancreatic islet tumors of RIP1-Tag2 transgenic mice
# T2 sequence (P05622 32-1098): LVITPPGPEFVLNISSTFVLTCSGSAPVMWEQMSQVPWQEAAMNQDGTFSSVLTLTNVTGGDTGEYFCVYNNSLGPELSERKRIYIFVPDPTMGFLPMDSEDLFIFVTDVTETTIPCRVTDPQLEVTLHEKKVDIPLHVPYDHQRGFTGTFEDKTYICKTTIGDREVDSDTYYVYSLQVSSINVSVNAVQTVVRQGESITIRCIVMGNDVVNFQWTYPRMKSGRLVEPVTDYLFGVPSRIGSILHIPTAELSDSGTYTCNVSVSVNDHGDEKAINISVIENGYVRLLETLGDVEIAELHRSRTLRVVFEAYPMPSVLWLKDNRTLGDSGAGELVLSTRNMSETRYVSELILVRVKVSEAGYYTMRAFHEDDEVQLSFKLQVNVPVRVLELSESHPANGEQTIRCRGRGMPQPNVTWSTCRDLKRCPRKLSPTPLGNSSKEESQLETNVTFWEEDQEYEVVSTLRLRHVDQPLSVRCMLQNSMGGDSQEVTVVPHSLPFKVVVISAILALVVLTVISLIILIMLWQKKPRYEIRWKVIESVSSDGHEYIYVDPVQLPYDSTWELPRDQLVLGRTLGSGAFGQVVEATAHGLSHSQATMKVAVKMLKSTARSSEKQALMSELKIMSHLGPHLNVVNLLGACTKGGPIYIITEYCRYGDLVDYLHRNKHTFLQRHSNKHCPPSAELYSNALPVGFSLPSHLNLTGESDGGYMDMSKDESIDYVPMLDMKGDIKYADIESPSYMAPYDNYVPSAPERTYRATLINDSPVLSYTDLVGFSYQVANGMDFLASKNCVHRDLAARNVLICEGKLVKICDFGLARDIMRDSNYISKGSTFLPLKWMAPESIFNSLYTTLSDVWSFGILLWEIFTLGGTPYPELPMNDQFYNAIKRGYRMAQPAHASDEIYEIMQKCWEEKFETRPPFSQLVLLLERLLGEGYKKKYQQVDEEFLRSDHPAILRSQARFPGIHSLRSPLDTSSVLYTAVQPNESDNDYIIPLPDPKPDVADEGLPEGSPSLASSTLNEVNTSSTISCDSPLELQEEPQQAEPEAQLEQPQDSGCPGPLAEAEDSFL
# Protocol: (§1) For immunohistochemistry, frozen slides were pre-incubated with blocking buffer (1×PNB from NEN Biosciences) for one hour, washed several times in 1×PBS and incubated with the primary antibody of interest overnight at 4° C. The cell-specific antibodies used were rat monoclonal anti-mouse CD31 (1:200; BD Pharmingen), rat monoclonal anti-mouse MECA-32 (1:200; BD Pharmingen), rabbit polyclonal anti-mouse NG2 (1:200; Chemicon), and rat monoclonal anti-mouse PDGFRb (CD140b) (1:200; eBioscience). The corresponding secondary antibodies; Cy-3 donkey anti-rabbit IgG and Rhodamine Red donkey anti-rat IgG (Jackson ImmunoResearch), were used at a 1:200 dilution and incubated for one hour at room temperature. The following species-matched immunoglobulins were used as negative controls; rabbit IgG (Vector Laboratories) and rat IgG (Jackson ImmunoResearch) at a 1:200 dilution. The slides were washed several times in 1×PBS and mounted in Vectashield Mounting Medium with DAPI (Vector Laboratories). Hematoxylin and eosin (H&E) staining was performed for histological grading of adjacent sections by standard methods, and lesions were graded as previously described (Lopez and Hanahan, 2002).
# FIG. 5A is a bar graph showing binding of RGR or RSR phage to 293 cells transfected with either PDGFRβ, VEGFR2, or non-transfected cells.
# [3] = system: endothelial cell and pericyte markers (MECA-32, NG2); experiment: Co-localization of fluorescein-conjugated peptides with vascular markers; assay type: in vivo, mouse; details: fluorescein-conjugated peptide i.v.; for co-localization with endothelial cell and pericyte markers in RIP1-Tag2 islet lesions: MECA-32, NG2, FIG. 3
# Protocol: To confirm that intravenous administration of phage libraries selects for phage carrying peptides that bind to endothelial molecules specific for the target vasculature, tissues were collected following i.v. infusion with the various fluorescein-conjugated peptides, sectioned, and evaluated with endothelial cell markers.
# as §1
# The primary analysis involved immunostaining with a mouse pan-endothelial cell antigen (MECA-32) antibody that recognizes a dimer of 50-55 kDa protein subunits present on all endothelial cells (Hallman et al., 1995; Leppink et al., 1989) (FIG. 3 B,C,H,I,N,O). Additional analyses involved immunostaining to reveal CD31/PE-CAM, or systemic infusion of a fluorescent-labeled lectin that binds to the endothelial lumen. In addition, tissue sections from peptide-infused mice were stained with an antibody recognizing NG2, a marker of the neovascular pericytes (Schlingemann et al., 1990, 1991) (FIG. 3 E,F,K,L,Q,R).
# [4] = system: RIP1-Tag2 angiogenic islets and tumors; experiment: Localization of fluorescein-conjugated peptides after intravenous injection; assay type: in vivo, mouse; details: for localization in RIP1-Tag2 angiogenic islets / localization in RIP1-Tag2 tumors / localization in normal islets: fluorescein-conjugated peptide i.v., 7 minutes circulation, FIG. 2; for homing selectivity of purified peptides: i.v. into 8-week or 12-week old RIP-Tag2 mice; for homing to normal islets, kidney, brain, liver, lung or spleen: purified peptides i.v.
# Protocol: Fluorescein-conjugated peptides corresponding to phage insert sequences were synthesized using an automated peptide synthesizer with standard solid-phase fluorenylmethoxycarbonyl (Fmoc) chemistry. […] of each individual fluorescein-conjugated peptide was injected intravenously into the tail vein of RIP1-Tag2 mice at 8 or 12 weeks of age, and into normal BL/6 mice. The peptide was allowed to circulate for 7 minutes, followed by heart perfusion first with PBS and then with Zn-buffered formalin. The RIP1-Tag2 pancreas and control organs (brain, kidney, liver, lung and spleen) were removed, fixed for one hour in formalin, washed with 1×PBS, placed in 30% sucrose for several hours, washed with 1×PBS, and embedded in OCT (Tissue-Tek). Each peptide was injected into at least three individual RIP1-Tag2 or normal mice at each of the different stages. To examine the localization of injected fluorescein-conjugated peptides, frozen sections ([…] thick) were cut on a cryostat, mounted in Vectashield Mounting Medium with DAPI (Vector Laboratories) and visualized under an inverted fluorescent microscope or a confocal microscope (Zeiss LSM 510 META).
# [5] = system: squamous cell carcinoma in a K14-HPV16 mouse; experiment: Homing to HPV tumor; assay type: in vivo; details: FIG. 4A
# Protocol: (§2) To determine whether phage identified to home to pancreatic tumors also home to other types of tumors, these phage were tested using animals having various types of tumors, including bTC3 subcutaneous tumor and MDA MB-435 subcutaneous tumor. bTC3 transplant tumors arise following subcutaneous inoculation of nude mice with cultured islet tumor-derived (bTC3) cells (Efrat et al., 1988). Since the vasculature of a subcutaneously grown bTC3 tumor derives from skin, we also tested another subcutaneous transplant tumor, arising from inoculation of the MDA-MB-435 human breast carcinoma cell line. Finally, K14-HPV16 mice, another well-studied transgenic mouse model of cancer that develop tumors of the squamous epithelial cells of the skin (Arbeit et al., 1994; Coussens et al., 1996), was used to compare RIP1-Tag2 islet tumors to a tumor with similar multistage pathogenesis arising in a different tissue.
# (§3) Tumors were dissected from the ear or chest of K14-HPV16 mice. For the bTC3 allograft models, 10^6 bTC3 tumor cells (Efrat et al., 1988) were inoculated under the skin of the rear flank of nu/nu mice in a BALB/c background and allowed to grow until approximately 5 mm in size, and then used for experimental analysis. MDA-MB-435 xenograft models were generated by inoculating 10^6 tumor cells subcutaneously in the chest of nu/nu Balb/c mice. Tumors were used for the homing/binding experiments at 8-12 weeks after injection of the tumor cells.
# [6] = system: bTC3-derived subcutaneous transplant tumor in a nude mouse; experiment: Homing to bTC3 subcutaneous tumor; assay type: in vivo; details: FIG. 4A
# Protocol: as §2, §3
# [7] = system: RIP1-Tag2 pancreatic tumor, bTC3-derived subcutaneous transplant tumor, K14-HPV16 squamous cell carcinoma; experiment: Relative homing efficiency of individual phage in various tumor models (FIG. 4A); assay type: in vivo, mouse; details: phage from the RIP1-Tag2 tumor screen
# Protocol: as §2, §3
# FIG. 4A is bar graph showing homing efficiency of individual phage to a pancreatic tumor in a RIP1-Tag2 mouse, a bTC3-derived subcutaneous transplant tumor in a nude mouse, and a squamous cell carcinoma in a K14-HPV16 mouse.
# [8] = system: MDA MB-435 subcutaneous tumor; experiment: Homing to MDA-MB-435 subcutaneous tumor; assay type: in vivo, mouse; details: fluorescein-conjugated peptide i.v., FIG. 4B
# Protocol: as §2, §3
# [9] = system: RIP1-Tag2 angiogenic islets and tumors; experiment: In vivo homing of phage (pools and individual phage) in RIP1-Tag2 mice; set-up: species or system mouse; details: phage-displayed peptide, i.v., FIG. 1D, with ex vivo binding patterns
# Protocol: For in vivo selection of phage that home specifically to premalignant lesions and malignant tumors, the ex vivo pre-selected phage pool was injected intravenously into 12 week old RIP1-Tag2 mice through the tail vein, allowed to circulate for 7 minutes and heart-perfused with PBS to remove unbound intravascular phage. As the vasculature is preferentially available for the phage to bind in this selection, there is an enrichment of phage that bind to the endothelium of the target tissue.
# The RIP1-Tag2 lesions and control tissues (brain, kidney, spleen, lung, ‘white’ pancreas lacking hemorrhagic lesions and liver were excised to allow for comparison of homing efficiencies. Cell suspensions were prepared by mechanical disruption of the tissues. Tissues were washed to remove unbound phage, and the bound phage rescued and amplified by adding E. coli. The phage pool was re-injected into mice at a similar disease stage, and the cycle repeated. In each experiment, non-recombinant control phage were used as a control for relative selectivity.
# Sets of 96 phage clones were randomly collected from each homing phage population that selectively homed to premalignant angiogenic islets or pancreatic tumor cells. Peptide-encoding DNA inserts from collected phage clones were amplified by PCR, and the PCR products sequenced. Phage representing the most frequently appearing peptide motifs were individually tested for their ability to selectively home to the lesions on which they were selected, relative to other stages in the tumorigenesis pathway and to control organs. Six of the phage selected for further analysis were from the tumor screen (referred to as KAA, RGR, RSR, VGVA, VGVG and KAR), and one (EYQ) was picked from the angiogenic screen.
Substance,binding to PDGFRβ-transfected cells (PDGFRβ [1]),co-localization with PDGFRβ (PDGFRβ [2]),co-localization with PDGFRβ (PDGFRβ [2]; listed as CRGRRST),co-localization with MECA-32 or NG2 in adjacent exocrine pancreas or normal pancreatic islets [3],co-localization with endothelial cell and pericyte markers in RIP1-Tag2 islet lesions [3],localization in RIP1-Tag2 angiogenic islets [4],localization in RIP1-Tag2 tumors [4],localization in normal islets [4],homing selectivity of purified peptides [4],"homing to normal islets, kidney, brain, liver, lung or spleen [4]",homing to HPV tumor [5],homing to TC3 tumor [6],relative homing efficiencies in the various tumor models (category) [7],homing to MDA tumor [8],homing class of individual phage (angiogenic islets or tumors in vivo) [9]
CRGRRST [linear homing peptide],bind,almost complete co-localization,co-localize,no co-localization,some co-localization both with endothelial cell and pericyte markers; also recorded: co-localized both with the endothelial cell and pericyte markers,localizes,localizes,little or no localization,both angiogenic islets and tumors,did not appreciably home,did not home appreciably,did not home appreciably,selectively home to RIP1-Tag2 tumors,did not home appreciably,home to both types of lesion
CKGAKAR,,,,,,,,,malignant solid tumors,did not appreciably home,homed,did not home appreciably,more general homing to other tumors in addition to RIP1-Tag2,,tumor-selective
VGVGEWSV,,,,,,,,,,,did not home appreciably,homed,more general homing to other tumors in addition to RIP1-Tag2,,tumor-selective
CRSRKG [linear homing peptide],,,,no co-localization,some co-localization both with endothelial cell and pericyte markers; also recorded: co-localized both with the endothelial cell and pericyte markers,abundant accumulation,little or no localization,little or no localization,highly selective for premalignant angiogenic islets,did not appreciably home,did not home appreciably,homed,,did not home appreciably,angiogenic islet-selective
CEYQLDVE [linear homing peptide],,,,,,,,,highly selective for premalignant angiogenic islets,did not appreciably home,,,,,angiogenic islet-selective
FRVGVADV [linear homing peptide; homes to both types of lesion],,,,,,,,,both angiogenic islets and tumors,did not appreciably home,did not home appreciably,did not home appreciably,selectively home to RIP1-Tag2 tumors,,home to both types of lesion
CKAAKNK,,,,no co-localization,some co-localization both with endothelial cell and pericyte markers; also recorded: co-localized both with the endothelial cell and pericyte markers,little or no localization,abundant localization,little or no localization,malignant solid tumors,did not appreciably home,did not home appreciably,did not home appreciably,selectively home to RIP1-Tag2 tumors,homed,tumor-selective
